Measured values as given in ChEMBL document CHEMBL2440069, “Synthesis and biological evaluation of direct thrombin inhibitors bearing 4-(piperidin-1-yl)pyridine at the P1 position with potent anticoagulant activity” (J Med Chem, 2013).

Tests used:
Coagulation factor X = Coagulation factor X (Homo sapiens, UniProt P00742); experiment: Inhibition of human factor 10a using Z-D-Arg-Gly-Arg-p-NA as substrate by chromogenic assay
[1] = 1-octanol-water partition coefficient, log D of the compound; assay type: physicochemical
Prothrombin [2] = molecular target: Prothrombin (Bos taurus, UniProt P00735); experiment: Inhibition of bovine thrombin using D-Phe-Pip-Arg-p-NA as substrate by chromogenic assay
[3] = 1-octanol-water partition coefficient, log P of the neutral form compound by HILIC analysis; assay type: physicochemical
Chymotrypsinogen A = Chymotrypsinogen A (Bos taurus, UniProt P00766); experiment: Inhibition of bovine alpha-chymotrypsin using N-succinyl-Ala-Ala-Pro-Phe-p-NA as substrate by chromogenic assay
[4] = Dissociation constant, pKa of the compound by potentiometric titration; assay type: physicochemical
[5] = Permeability of the compound at pH 6.8 by PAMPA assay; assay type: ADME
Plasma = experiment: Anticoagulant activity in human plasma assessed as concentration required to double activated […] time; assay type: functional
Coagulation factor VII = molecular target: T1, Coagulation factor VII (Homo sapiens, UniProt P08709); experiment: Inhibition of human recombinant factor 7a using spectrozyme as substrate by chromogenic assay
T1 sequence (P08709 whole entry): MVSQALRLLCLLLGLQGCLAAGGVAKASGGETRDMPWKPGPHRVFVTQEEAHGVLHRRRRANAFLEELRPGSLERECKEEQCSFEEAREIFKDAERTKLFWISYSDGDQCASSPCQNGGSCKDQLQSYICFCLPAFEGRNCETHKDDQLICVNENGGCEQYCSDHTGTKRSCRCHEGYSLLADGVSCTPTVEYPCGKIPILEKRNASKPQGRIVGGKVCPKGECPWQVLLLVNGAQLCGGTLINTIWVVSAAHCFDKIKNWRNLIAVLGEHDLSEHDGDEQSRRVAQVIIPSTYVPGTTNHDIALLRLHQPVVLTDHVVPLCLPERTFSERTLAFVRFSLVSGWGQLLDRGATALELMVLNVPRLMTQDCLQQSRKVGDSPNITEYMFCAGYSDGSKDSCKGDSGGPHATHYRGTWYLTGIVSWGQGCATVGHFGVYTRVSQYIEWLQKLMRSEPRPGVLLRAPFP

Neutrophil elastase = molecular target: T2, Neutrophil elastase (Homo sapiens, UniProt P08246); experiment: Inhibition of human neutrophil leukocyte elastase using N-(methoxysuccinyl)-Ala-Ala-Pro-Val-p-NA as substrate by chromogenic assay
T2 sequence (P08246 whole entry): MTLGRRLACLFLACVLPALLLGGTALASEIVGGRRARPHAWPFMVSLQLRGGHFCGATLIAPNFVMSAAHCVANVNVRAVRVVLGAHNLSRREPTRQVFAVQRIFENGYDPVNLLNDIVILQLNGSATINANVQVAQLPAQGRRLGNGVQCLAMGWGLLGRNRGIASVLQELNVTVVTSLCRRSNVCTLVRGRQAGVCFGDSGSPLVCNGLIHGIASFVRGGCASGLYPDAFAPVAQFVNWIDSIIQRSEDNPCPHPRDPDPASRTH

Prothrombin [6] = molecular target: Prothrombin (Homo sapiens, UniProt P00734); experiment: Inhibition of human thrombin using D-Phe-Pip-Arg-p-NA as substrate by chromogenic assay
[7] = Inhibition of bovine pancreatic trypsin using D-Phe-Pip-Arg-p-NA as substrate by chromogenic assay; set-up: species or system Bos taurus
[8] = Permeability of the compound at pH 8 by PAMPA assay; assay type: ADME

Chain of Coagulation factor X (P00742 41-179 limits assumed): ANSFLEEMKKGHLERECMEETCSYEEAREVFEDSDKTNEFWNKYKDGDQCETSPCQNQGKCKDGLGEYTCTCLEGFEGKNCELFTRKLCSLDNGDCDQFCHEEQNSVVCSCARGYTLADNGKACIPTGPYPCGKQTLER
Chain of Coagulation factor X (P00742 235-488 limits assumed): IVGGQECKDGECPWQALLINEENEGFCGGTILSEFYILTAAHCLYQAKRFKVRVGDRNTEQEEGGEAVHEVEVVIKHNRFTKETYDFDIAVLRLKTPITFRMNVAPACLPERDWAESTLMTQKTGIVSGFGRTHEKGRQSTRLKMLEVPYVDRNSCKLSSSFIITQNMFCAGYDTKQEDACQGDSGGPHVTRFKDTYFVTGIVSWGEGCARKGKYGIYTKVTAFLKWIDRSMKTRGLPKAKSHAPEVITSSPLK

Structure (SMILES) | Ki (Coagulation factor X) [µM] | Ki (Prothrombin [2]; read-out: Ki) [µM] | pKa [4] | also measured
O=C(Nc1cccc(CCc2cccc(F)c2)c1)C1CCN(c2ccncc2)CC1 | 44.1 | 12.4 |  | logD [1]: 3.58; Ki (Prothrombin [2]; read-out: pKi (converted)): 12.3 µM
O=C(Nc1cccc(COc2cccc(F)c2)c1)C1CCN(c2ccncc2)CC1 | > 250 | 18.2 |  | logD [1]: 3.02
O=C(Nc1ccccc1OCc1cccc(F)c1)C1CCN(c2ccncc2)CC1 | > 250 | > 250 |  | 
CS(=O)(=O)c1ccccc1COc1cccc(NC(=O)C2CCN(c3ccncc3)CC2)c1 | 35.1 | 12.3 |  | 
COc1cccc(COc2cccc(NC(=O)C3CCN(c4ccncc4)CC3)c2)c1 | 7.23 | 1.15 |  | 
O=C(Nc1cccc(OCc2ccc3c(c2)OCO3)c1)C1CCN(c2ccncc2)CC1 | 3.72 | 0.053 | 9.1 | logP [3]: 4.9; Ki (Chymotrypsinogen A): > 250 µM; log Pe [5]: impermeable; 2aPTT (Plasma): >200 µM
Nc1ccc(N2CCC(C(=O)Nc3cccc(OCc4ccc(F)cc4)c3)CC2)cc1 | 63.5 | > 250 | 3 | 
O=C(Nc1cccc(OCc2ccc(F)cc2F)c1)C1CCN(c2ccncc2)CC1 | 8.8 | 4.64 |  | 
CC(=N)N1CCC(C(=O)Nc2cccc(OCc3ccc(F)cc3)c2)CC1 | 57.3 | > 250 |  | 
CN(C)Cc1ccc(COc2cccc(NC(=O)C3CCN(c4ccncc4)CC3)c2)cc1 | 12.2 | 8.19 |  | 
Nc1cccc(COc2cccc(NC(=O)C3CCN(c4ccncc4)CC3)c2)c1 | 36.1 | 13.3 |  | 
O=C(Nc1cccc(OCc2ccccc2F)c1)C1CCN(c2ccncc2)CC1 | 6.83 | 0.064 | 9.2 | Ki (Coagulation factor VII): > 250 µM; logP [3]: 4.9; Ki (Chymotrypsinogen A): 71.6 µM; Ki (Neutrophil elastase): > 250 µM; Ki (Prothrombin [6]): 0.09 µM; 2aPTT (Plasma): 19.8 µM; Ki [7]: 27 µM
Nc1ccc(COc2cccc(NC(=O)C3CCN(c4ccncc4)CC3)c2)cc1 | 25 | 10 |  | 
O=C(Nc1cccc(OCc2ccc(F)cc2)c1)C1CCNCC1 |  |  | 9.8 | 
O=C(Nc1cccc(OCc2ccccc2)c1)C1CCN(c2ccncc2)CC1 | 7.46 | 39.5 |  | 
CS(=O)(=O)c1cccc(COc2cccc(NC(=O)C3CCN(c4ccncc4)CC3)c2)c1 | 15.6 | 15.9 |  | 
O=C(Nc1cccc(OCCc2cccc(F)c2)c1)C1CCN(c2ccncc2)CC1 | 2.14 | 0.488 |  | Ki (Prothrombin [2]; read-out: pKi (converted)): 18.2 µM
Fc1cccc(COc2cccc(NCC3CCN(c4ccncc4)CC3)c2)c1 | 3.83 | > 250 |  | 
O=C(Nc1cccc(OCc2cccc(Br)c2)c1)C1CCN(c2ccncc2)CC1 | 6.31 | 20.9 |  | 

Structure (SMILES) | Ki (Coagulation factor X) [µM] | Ki (Prothrombin [2]; read-out: Ki) [µM] | pKa [4] | also measured
O=C(Nc1cccc(OCc2ccc(F)cc2)c1)C1CCN(c2ccncc2)CC1 |  |  | 8.9 | Ki (Coagulation factor VII): > 250 µM; logP [3]: 5.1; Ki (Chymotrypsinogen A): 71.6 µM; Ki (Neutrophil elastase): 68.7 µM; Ki (Prothrombin [6]): 0.014 µM; 2aPTT (Plasma): 59 µM; Ki [7]: > 250 µM
O=C(Nc1cccc(OCc2cccc([N+](=O)[O-])c2)c1)C1CCN(c2ccncc2)CC1 | 6.73 | 26.8 |  | 
O=C(Nc1cccc(OCc2ccc([N+](=O)[O-])cc2)c1)C1CCN(c2ccncc2)CC1 | 6 | 5.85 |  | 
COc1ccc(COc2cccc(NC(=O)C3CCN(c4ccncc4)CC3)c2)cc1OC | 0.606 | 0.031 | 9.2 | Ki (Coagulation factor VII): > 250 µM; logP [3]: 4.9; Ki (Chymotrypsinogen A): 71.5 µM; Ki (Neutrophil elastase): > 250 µM; Ki (Prothrombin [6]): 0.755 µM; 2aPTT (Plasma): 154 µM; Ki [7]: 27 µM
CN(C(=O)C1CCN(c2ccncc2)CC1)c1cccc(OCc2cccc(F)c2)c1 | 23.6 | > 250 |  | 
CC(C)N1CCC(C(=O)Nc2cccc(OCc3ccc(F)cc3)c2)CC1 | > 250 | > 250 | 9.4 | 
O=C(Nc1cccc(OCc2ccc(F)cc2)c1)C1CCN(Cc2ccncc2)CC1 | 47.1 | 15.3 | 3.3 | log Pe [8]: impermeable; log Pe [5]: impermeable
COc1cc(COc2cccc(NC(=O)C3CCN(c4ccncc4)CC3)c2)cc(OC)c1 | 126 | 0.083 | 8.9 | logP [3]: 4.9; Ki (Chymotrypsinogen A): 33.8 µM; 2aPTT (Plasma): 200 µM
O=C(Nc1cccc(OCc2ccc(Br)cc2)c1)C1CCN(c2ccncc2)CC1 | 37.1 | 2.03 |  | 
O=C(Nc1cccc(OCc2ccc(F)cc2)c1)C1CCN(c2ncccn2)CC1 | 91.6 | 26.8 | 6 | log Pe [8]: impermeable; log Pe [5]: impermeable
O=C(Nc1cccc(OCc2cccc(Cl)c2)c1)C1CCN(c2ccncc2)CC1 | > 250 | 0.156 |  | 
O=C(Nc1cccc(OCc2ccc(Cl)cc2)c1)C1CCN(c2ccncc2)CC1 | 29.6 | 0.26 |  | 
O=C(Nc1cccc(OCc2ccc(F)cc2)c1)C1CCN(c2ccccn2)CC1 | 78 | > 250 | 8.5 | 
O=C(Nc1cccc(OCc2cc(F)cc(F)c2)c1)C1CCN(c2ccncc2)CC1 | 27 | 0.063 | 9.2 | Ki (Coagulation factor VII): > 250 µM; logP [3]: 5.2; Ki (Chymotrypsinogen A): 31.4 µM; Ki (Neutrophil elastase): > 250 µM; Ki (Prothrombin [6]): 0.031 µM; 2aPTT (Plasma): 26.3 µM; Ki [7]: > 250 µM
CS(=O)(=O)c1ccc(COc2cccc(NC(=O)C3CCN(c4ccncc4)CC3)c2)cc1 | 7.73 | 0.124 | 9.1 | logP [3]: 4.9; Ki (Chymotrypsinogen A): > 250 µM; 2aPTT (Plasma): 98.2 µM
COc1ccccc1COc1cccc(NC(=O)C2CCN(c3ccncc3)CC2)c1 | 16.4 | 1.3 |  | 
COc1ccc(COc2cccc(NC(=O)C3CCN(c4ccncc4)CC3)c2)cc1 | 11.1 | 2.03 |  | 
O=C(Nc1cccc(OCc2ccc(C(F)(F)F)cc2)c1)C1CCN(c2ccncc2)CC1 | 48.5 | 3.4 |  | 
